Laboratory results: US20250154288A1, “CYTOTOXICITY TARGETING CHIMERAS FOR C-C CHEMOKINE RECEPTOR 2-EXPRESSING CELLS” (GLAXOSMITHKLINE INTELLECTUAL PROPERTY DEVELOPMENT LIMITED, priority 2022, published 2025)
Structures can show the parent of a compound that is named as a salt.

Key:
[1] = test system: CCR2 expressing cells (CD11b+Ly6c+ Hi) in peripheral blood; assay: In Vivo Depletion Assay (flow cytometry of peripheral blood); design: species or system Human CCR2 (hCCR2) knock-in mice; settings: hCCR2 knock-in mice; IV 0.1 mpk compound + 10 mpk anti-cotinine antibody (mouse IgG2a Fc); peripheral blood at 48 hr
Procedure: Human CCR2 (hCCR2) knock-in mice (057 background) were dosed intravenously with a PBS solution containing a compound of Formula (I) to measure depletion of CCR2 expressing cells in peripheral blood. Peripheral blood from IV dosed mice was also analyzed to determine PK properties of the ARM compounds of Formula (I).
Stock solution preparation: Stock solutions of compounds of Formula (I) were prepared at 20 mg/mL and 100 mg/mL in DMSO for PK/PD and dose tolerability studies respectively. Stock solutions were stored at −20° C. until further usage.
Formulations preparation: On the day of experiment, the stock solution of the compound of Formula (I) was removed from storage at −20° C. and thawed at room temperature. Anti-cotinine antibody having a heavy chain sequence of SEQ ID NO: 13 and a light chain sequence of SEQ ID NO: 14 (rabbit variable region sequence with mouse IgG2a Fc domain), if required was removed from storage at −80° C. and thawed at room temperature. Antibody vials were immediately transferred into wet ice after thawing. Compounds of Formula (I) were further diluted in DMSO as per experimental requirements.
Formulation composition: The formulation composition was Saline: DMSO: PBS. Saline was added based on the quantity required and then stock solution of the compound of Formula (I) prepared in DMSO, followed by addition of antibody in PBS. Formulations were incubated at room temperature for 30 minutes before administration to the mouse. DMSO was used at 1 to 2% (v/v) in the final formulation.
Administration to Animal: Solution formulation of antibody and compound of Formula (I) was injected (bolus injection) to the restrained mouse in the right/left lateral tail vein. Animals were dosed with 0.1 milligram per kilogram (mpk) of the compound of Formula (I) and 10 mpk of the anti-cotinine antibody.
Terminal bleeding at end of experiment (48 hr): Approximately 250 μL of blood in K2EDTA tube and approximately 250 μL of blood in SST (serum separation tube) was collected from each mouse through retro-orbital bleeding under deep isoflurane anesthesia. After bleeding, each mouse was sacrificed by cervical dislocation. The blood distribution at termination was determined as follows: • For PK: 50 μL of K2EDTA blood was transferred to another tube for PK • Flow cytometry: Remaining blood (˜200 μL) was used for flow cytometry analysis. • For serum collection: serum separator tubes (BD) were centrifuged at 4° C., 5000 rpm for 15 minutes. Approximately 100 μL serum was separated and stored at −80° C. for further usage. • Blood drug concentration: Samples collected at the various timepoints (0.25 hr, 2 hr, 24 and 48 hr) were analyzed to determine blood drug concentration.
CCR2 depletion in peripheral blood was determined by flow cytometry. Briefly, peripheral blood was collected from all animals at the end of study termination and processed. Blood samples were lysed using 1×RBC Lysis buffer and the resulting cell pellet was washed twice in FACS buffer (HBSS containing 5% FBS). Cells were subjected to Fc blocking using mouse Fc block from Biolegend (Trustain, anti-mouse CD16/32, Cat: 101319) to block non-specific binding followed by surface staining for immune markers (CD45, CD3, CD11b, Ly6C, human CCR2). Surface staining was done for 30 minutes in ice and cells were washed twice to remove unbound antibodies. Cells were stained with 7AAD to determine viability and acquired on BD FACSVerse flow cytometer. Appropriate FMO controls and single-color controls were included in the experiment for gating and compensation respectively.
Percent depletion of CD11b+Ly6c+ Hi cells and CCR2 expression for the different treatment groups was determined. The results are shown below in Table 4 and are reported as percent (%) depletion of CCR2 expressing cells.

[2] = target: T1, CHOK1 cells engineered to overexpress human CCR2 (Homo sapiens, UniProt P41597); assay: Antibody Dependent Cellular Cytotoxicity (ADCC) Reporter Assay; format: cell-based; settings: with anti-cotinine antibody (human IgG1 Fc, S239D/I332E); Jurkat FcγRIIIa NFAT-luciferase reporter cells; average if several runs; read-out: ADCC Reporter Assay pEC50 (converted)
T1 construct: expressed in transfected cells; host or cells: CHOK1
Method in brief: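 CHOK1-hCCR2 target cells co-incubated ~12-18 h with compound (1 pM–10 μM), anti-cotinine rabbit/human IgG1 S239D/I332E antibody (0.01–200 μg/mL) and Jurkat FcγRIIIa NFAT-luciferase reporter cells. Luminescence signal:background versus no-compound wells; EC50 from four-parameter fit, reported as pEC50, averaged over runs.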

Row | SMILES | % Depletion of CCR2 expressing cells [1] [%] | EC50 [2] [nM]
1 | CO[C@@H]1COCC[C@@H]1N[C@@H]1CC[C@](CCC2CCN(C(=O)[C@H]3CC[C@H](NC(=O)CCCO[C@H]4CC[C@H](OCCNC(=O)[C@H]5CC(=O)N(C)[C@@H]5c5cccnc5)CC4)CC3)CC2)(C(=O)N2CCc3ncc(C(F)(F)F)cc3C2)C1 [Example 2, (2S,3S)—N-(2-(((1R,4S)-4-(4-(((1S,4R)-4-(4-(2-((1S,3R)-3-(((3S,4S)-3-Methoxytetrahydro-2H-pyran-4-yl)amino)-1-(3-(trifluoromethyl)-5,6,7,8-tetrahydro-1,6-naphthyridine-6-carbonyl)cyclopentyl)ethyl)piperidine-1-carbonyl)cyclohexyl)amino)-4-oxobutoxy)cyclohexyl)oxy)ethyl)-1-methyl-5-oxo-2-(pyridin-3-yl)pyrrolidine-3-carboxamide] | 97.7 | 12.6
2 | CO[C@@H]1COCC[C@@H]1N[C@@H]1CC[C@@](C(=O)N2Cc3cc(C(F)(F)F)cnc3[C@@H](NC(=O)[C@H]3CC[C@H](NC(=O)CCCO[C@H]4CC[C@H](OCCNC(=O)[C@H]5CC(=O)N(C)[C@@H]5c5cccnc5)CC4)CC3)C2)(C(C)C)C1 [Example 15, (2S,3S)-N-(2-(((1R,4S)-4-(4-(((1S,4R)-4-(((S)-6-((1S,3R)-1-isopropyl-3-(((3S,4S)-3-methoxytetrahydro-2H-pyran-4-yl)amino)cyclopentane-1-carbonyl)-3-(trifluoromethyl)-5,6,7,8-tetrahydro-1,6-naphthyridin-8-yl)carbamoyl)cyclohexyl)amino)-4-oxobutoxy)cyclohexyl)oxy)ethyl)-1-methyl-5-oxo-2-(pyridin-3-yl)pyrrolidine-3-carboxamide] | 94.04 | 0.2
3 | CO[C@@H]1COCC[C@@H]1N[C@@H]1CC[C@](COCCNC(=O)[C@H]2CC[C@H](NC(=O)CCCO[C@H]3CC[C@H](OCCNC(=O)[C@H]4CC(=O)N(C)[C@@H]4c4cccnc4)CC3)CC2)(C(=O)N2CCc3ncc(C(F)(F)F)cc3C2)C1 [Example 11, (2S,3S)-N-(2-(((1R,4S)-4-(4-(((1S,4R)-4-((2-(((1S,3R)-3-(((3S,4S)-3-Methoxytetrahydro-2H-pyran-4-yl)amino)-1-(3-(trifluoromethyl)-5,6,7,8-tetrahydro-1,6-naphthyridine-6-carbonyl)cyclopentyl)methoxy)ethyl)carbamoyl)cyclohexyl)amino)-4-oxobutoxy)cyclohexyl)oxy)ethyl)-1-methyl-5-oxo-2-(pyridin-3-yl)pyrrolidine-3-carboxamide] | 89.3 | 2.51
4 | CO[C@@H]1COCC[C@@H]1N[C@@H]1CC[C@](CCCNC(=O)[C@H]2CC[C@@H](NC(=O)CCOCCOCCOCCNC(=O)[C@H]3CC(=O)N(C)[C@@H]3c3cccnc3)CC2)(C(=O)N2CCc3ncc(C(F)(F)F)cc3C2)C1 [Example 17, (2S,3S)—N-(2-(2-(2-(3-(((1R,4s)-4-((3-((1S,3R)-3-(((3S,4S)-3-Methoxytetrahydro-2H-pyran-4-yl)amino)-1-(3-(trifluoromethyl)-5,6,7,8-tetrahydro-1,6-naphthyridine-6-carbonyl)cyclopentyl)propyl)carbamoyl)cyclohexyl)amino)-3-oxopropoxy)ethoxy)ethoxy)ethyl)-1-methyl-5-oxo-2-(pyridin-3-yl)pyrrolidine-3-carboxamide, Formic acid salt] | 96.07 | 6.31
5 | CO[C@@H]1COCC[C@@H]1N[C@@H]1CC[C@](CCNC(=O)[C@H]2CC[C@H](NC(=O)CCCO[C@H]3CC[C@H](OCCNC(=O)[C@H]4CC(=O)N(C)[C@@H]4c4cccnc4)CC3)CC2)(C(=O)N2CCc3ncc(C(F)(F)F)cc3C2)C1 [Example 8, (2S,3S)-N-(2-(((1R,4S)-4-(4-(((1R,4R)-4-((2-((1R,3R)-3-(((3S,4S)-3-Methoxytetrahydro-2H-pyran-4-yl)amino)-1-(3-(trifluoromethyl)-5,6,7,8-tetrahydro-1,6-naphthyridine-6-carbonyl)cyclopentyl)ethyl)carbamoyl)cyclohexyl)amino)-4-oxobutoxy)cyclohexyl)oxy)ethyl)-1-methyl-5-oxo-2-(pyridin-3-yl)pyrrolidine-3-carboxamide] | 99.22 | 1.58
6 | CO[C@H]1COCC[C@H]1N[C@H]1CC[C@@](CCCNC(=O)[C@H]2CC[C@@H](NC(=O)CCOCCOCCNC(=O)CCNC(=O)[C@H]3CC(=O)N(C)[C@@H]3c3cccnc3)CC2)(C(=O)N2CCc3ncc(C(F)(F)F)cc3C2)C1 [Example 19, (2S,3S)—N-(3-((2-(2-(3-(((1s,4s)-4-((3-((1R,3S)-3-(((3R,4R)-3-Methoxytetrahydro-2H-pyran-4-yl)amino)-1-(3-(trifluoromethyl)-5,6,7,8-tetrahydro-1,6-naphthyridine-6-carbonyl)cyclopentyl)propyl)carbamoyl)cyclohexyl)amino)-3-oxopropoxy)ethoxy)ethyl)amino)-3-oxopropyl)-1-methyl-5-oxo-2-(pyridin-3-yl)pyrrolidine-3-carboxamide] | 85.39 | 3.16
7 | CO[C@@H]1COCC[C@@H]1N[C@@H]1CC[C@@](C(=O)N2CCc3nc(CCCCOc4cccc(C(=O)NCCOCCOCCOCCOCCOCCOCCOCCOCCOCCNC(=O)[C@H]5CC(=O)N(C)[C@@H]5c5cccnc5)c4)c(C(F)(F)F)cc3C2)(C(C)C)C1 [Example 22, (2S,3S)—N-(1-(3-(4-(6-((1S,3R)-1-Isopropyl-3-(((3S,4S)-3-methoxytetrahydro-2H-pyran-4-yl)amino)cyclopentane-1-carbonyl)-3-(trifluoromethyl)-5,6,7,8-tetrahydro-1,6-naphthyridin-2-yl)butoxy)phenyl)-1-oxo-5,8,11,14,17,20,23,26,29-nonaoxa-2-azahentriacontan-31-yl)-1-methyl-5-oxo-2-(pyridin-3-yl)pyrrolidine-3-carboxamide] | 89 | 1.58
